From patent US20110104664A1, “BIOMARKERS AND METHODS FOR DETERMINING SENSITIVITY TO MICORTUBULE-STABILIZING AGENTS” (Bristol-Myers Squibb Company, priority 2006, published 2011)

Test system: invasive stage IIA-IIIB breast adenocarcinoma
Test: CA163-080 phase II trial: pathologic complete response (pCR) in the breast after neoadjuvant ixabepilone, Sataloff classification
Format: in vivo, human
Experimental: CA163-080 (080 trial) is an exploratory genomic phase II study that was conducted in breast cancer patients who received ixabepilone as a neoadjuvant treatment. The primary objective of this study was to identify predictive markers of response to ixabepilone through gene expression profiling of pre-treatment breast cancer biopsies. Patients with invasive stage IIA-IIIB breast adenocarcinoma (tumor size ≧3 cm diameter) received 40 mg/m^2 ixabepilone as a 3-hour infusion on Day for up to four 21-day cycles, followed by surgery within 3-4 weeks of completion of chemotherapy. A total of 164 patients were enrolled in this study. Biopsies for gene expression analysis were obtained both pre- and post-treatment. Upon isolation of biopsies from the patients, samples were either snap frozen in liquid nitrogen or placed into RNAlater solution overnight, followed by removal from the RNAlater solution. All samples were kept at −70° C. until use.
Pathological response was assessed using the Sataloff classification system (D. Sataloff et al., J. Am. Coll. Surg., 180(3):297-306 (1995)) and used as an end point for the pharmacogenomic analysis. The pathologic response was evaluated in the primary tumor site at the end of treatment and prior to surgery by assessing histologic changes compared with baseline as following: At the primary tumor site, cellular modifications were evaluated in both the infiltrating tumoral component and in the possible ductal component, to determine viable residual infiltrating component (% of total tumoral mass); residual ductal component (% of total tumoral mass); the mitotic index. Pathologic Complete Response (pCR) in the breast only was defined as T-A, Total or near total therapeutic effect in primary site. […] The response rate was defined as the number of responders divided by the number of treated patients.
Based on the definition of Pathology Complete Response (pCR), there are 23 responders and 111 non-responders in the 080 trial. Estrogen receptor 1 (ER) was previously found to be the best single-gene predictor with negative prediction value (NPV) 92% and positive prediction value (PPV) 37%, as described in PCT Publication No. ______ (PCT Application No. PCT/US2005/043261).
The data were based on the 080 trial. Patients' ER and PR status were determined by IHC assay.

[1] = 134 patients of the genomic dataset, 080 trial
[2] = ER− group of the genomic dataset

Question: How did the “number of non-responders (no pCR)” value [1] turn out when C/C(=C\c1csc(C)n1)[C@@H]1C[C@@H]2O[C@]2(C)CCC[C@H](C)[C@H](O)[C@@H](C)C(=O)C(C)(C)[C@@H](O)CC(=O)N1 [ixabepilone] was run?
Answer: 111

Question: What about the “number of responders (pCR)” value [1] of the same compound?
Answer: 23

Question: And the pCR response rate (ER+ PR+ patients (IHC), 080 trial)?
Answer: 4/62 = 6%

Question: What about the pCR response rate (ER+ PR− patients (IHC), 080 trial) of the same compound?
Answer: 4/15 = 26.7%

Question: And the pCR response rate (ER− PR+ patients (IHC), 080 trial)?
Answer: 0/9 = 0%

Question: What about the pCR response rate (ER− PR− patients (IHC), 40 mg/m^2 3-hour infusion, up to four 21-day cycles, 080 trial) of the same compound?
Answer: 20/61 = 33%

Question: What about the “number of non-responders (no pCR)” value [2] of the same compound?
Answer: 37

Question: And the “number of responders (pCR)” value [2]?
Answer: 18

Question: What about the pCR response rate (all ER+ patients (IHC), 080 trial) of the same compound?
Answer: 8/77 = 10.4%

Question: What about the pCR response rate (all ER− patients (IHC), 080 trial) of the same compound?
Answer: 20/70 = 29%

Question: What about the pCR response rate (all PR+ patients (IHC), 080 trial) of the same compound?
Answer: 4/71 = 5.6%

Question: And the pCR response rate (all PR− patients (IHC), 080 trial)?
Answer: 24/76 = 31.5%

Question: And the pCR response rate (overall, all patients with ER and PR status, 080 trial)?
Answer: Overall: 18%
